The assay concerns Her2. Description: Degradation of Her2 in BT-474 cells, Western blot (Method 1). Type of assay: cell-based, human. Particulars: 0.5 μM, overnight. As for the experimental part: Human high-Her2 breast carcinoma BT474 (HTB-20), SK-BR-3 (HTB-30) and MCF-7 breast carcinoma (HTB-22) from American Type Culture Collection, VA, USA were grown in Dulbecco's modified Eagle's medium with 4 mM L-glutamine and antibiotics (100 IU/ml penicillin and 100 ug/ml streptomycine; GibcoBRL). To obtain exponential cell growth, cells were trypsinized, counted and seeded at a cell density of 0.5×10^6 cells/ml regularly, every 3 days. All experiments were performed on day 1 after cell passage.
BT-474 cells are treated with 0.5 μM, 2 μM, or 5 μM of 17AAG (a positive control) or 0.5 μM, 2 μM, or 5 μM of a compound of the invention overnight in DMEM medium. After treatment, each cytoplasmic sample is prepared from 1×10^6 cells by incubation of cell lysis buffer (#9803, cell Signaling Technology) on ice for 10 minutes. The resulting supernatant used as the cytosol fractions is dissolved with sample buffer for SDS-PAGE and run on a SDS-PAGE gel, blotted onto a nitrocellulose membrane by using semi-dry transfer. Non-specific binding to nitrocellulose is blocked with 5% skim milk in TBS with 0.5% Tween at room temperature for 1 hour, then probed with anti-Her2/ErB2 mAb (rabbit IgG, #2242, Cell Signaling) and anti-Tubulin (T9026, Sigma) as housekeeping control protein. […]
(In general: A western blot detects proteins with antibodies after separation by electrophoresis.)

As for `C=CCNC1=C2C[C@@H](C)C[C@H](OC)[C@H](O)[C@@H](C)/C=C(\C)[C@H](OC(N)=O)[C@@H](OC)/C=C\C=C(/C)C(=O)NC(=CC1=O)C2=O` [Compound 17AAG, 17-allylamino-17-demethoxygeldanamycin], the “degradation of Her2” value was “partial degradation of Her2”.

The values are drawn from patent US8329736B2, “Triazole compounds that modulate HSP90 activity” (Synta Pharmaceuticals, Corp., priority 2006, dated 2012).
